Numbered stars: 1 amine (or outer) side, 2 acyl side, 3 side chain; on linkers, the order of the positions; unused ones are H or OH. Bridge positions count the residues as written; N and C are the ends. Square brackets hold non-standard residues; d marks the D form. Peptide text beside a SMILES is read from it. I, II: the chains in the order shown. Actinocin(9to1) = Cc1c2oc3c(C)ccc(C(=O)[*:1])c3nc-2c(C(=O)[*:2])c(N)c1=O; NMeV = CN[C@H](C(=O)O)C(C)C; Sar = CNCC(=O)O
Legend:
Assay type in all cases: cell-based, mouse
BDNF targets = assay: Immunoblotting for BDNF target proteins with or without Actinomycin-D; conditions: Actinomycin-D 0.5 μg/mL added 10 min before stimulation
Method: […] Bath application of BDNF (100 ng/mL) was for designated periods (5 min-2 hours). The cultures were washed 3 times and harvested on ice with lysis buffer (50 mM Hepes, 150 mM NaCl, 10% Glycerol, 1 mM EDTA, 1% Triton-X-100, 0.2% SDS) plus freshly added protease inhibitor cocktail (Roche) and PMSF. Protein concentration was determined by Bradford Assay. If required, lysates were treated with Lambda Protein Phosphatase according to manufacturer's instructions (New England Biolabs P0753S). Equal amounts of lysate protein were resolved on SDS-PAGE gels, and electrotransferred to PVDF membrane. Membrane was blocked with 5% milk in Tris-buffered saline tween 20 (TBST) and probed with primary antibodies in 5% milk or BSA in TBST: GluR1 (Millipore AB1504), CaMKIIα (Zymed 13-7300), Homer2 (gift of P. Worley), KCC2 (Upstate 07-432), Kv1.1 (NeuroMab 73-007), β-tubulin (U. Iowa DSHB, clone E-7), GAPDH (gift of S. Snyder), GW182 (18033 gift of M. Fritzler or Abcam ab84403), Dcp1a (gift of J. Lykke-Andersen or NeuroMab clone3G4), phospho-ERK ½ (Sigma M 7802), Dicer (NeuroMab clone N167/7), TRBP (Abeam ab72110), Lin28a (Cell Signaling A177), Lin28b (gift of E. Moss or Cell Signaling 5422), Arc (SantaCruz 17839), mCherry (Clontech 632496), GFP (NeuroMab N86/8).

cultured neurons = assay: 35S-labelling total protein synthesis; conditions: mock or BDNF 100 ng/mL 2 hours, Actinomycin-D
Method: Cultured neurons were pre-incubated in media containing reduced-serum and Actinomycin-D as previously described, followed by washing and incubation for 10 min with methionine- and cysteine-free DMEM (Mediatech, Inc.), and ^35S labeling in the same DMEM with the addition of ^355-methionine/cysteine (^35S Met/Cys EasyTag Mix, Perkin Elmer) to a final concentration of […]. Mock- or BDNF stimulation was for 2 hours. Cells were washed and lysed with lysis buffer (see immunoblotting). Lysates were centrifuged and collected supernatants subjected to Bradford assay. To assess newly synthesized proteins, 200-500 μg of lysates proteins were precipitated with 10% trichloroacetic acid (TCA) for 1 hour on ice in the presence of 0.5% deoxycholate (DOC) to remove interfering phenol red. After centrifugation, protein pellets were washed with ice-cold 95% ethanol, solubilized in denaturing buffer ([…] Tris pH 8.3, 5 mM EDTA, 0.05% SDS, 6M urea), and subjected to liquid scintillation counting (Econofluor, New England Nuclear, Inc.). ^35S Disintegration per minute (DPM) was used to quantitate protein synthesis after subtraction of background readings.

[1] = test system: hippocampal pyramidal neurons; assay: Live cell imaging of P-body numbers (GFP-Dcp1a); conditions: 15 μM
Method: Dissociated hippocampal cultures were prepared from postnatal day 0 (P0) mice as previously described (Meffert et al., 2003). Knockdown was by lentiviral-mediated delivery of shRNA to cultures at multiplicity of infection of 5-10, 48 hr before imaging or 4-5 days for GW182. Cultures were preincubated 10-20 min and mock- or BDNF-stimulated (100 ng/mL BDNF) in the presence of Actinomycin-D (0.5 μg/mL), unless indicated otherwise.
Confocal images of hippocampal pyramidal neurons were acquired on either a Yokogawa spinning disk (Zeiss) at 37° C. (live cells), or a LSM5 Pascal system (fixed cells). Laser power and exposure time were adjusted to minimize photobleaching and avoid saturation. […]
Dissociated hippocampal cultures were prepared from postnatal day 0 (P0) mice as previously described (Meffert et al., 2003) and were maintained in Neurobasal A medium (Gibco, 10888) with B27 Supplement (Gibco 17504-44). […] For live cell imaging, confocal images of hippocampal pyramidal neurons (excitatory, determined by morphology) in 0.24-0.3 μm Z sections were acquired using a 40×, 1.3 NA, EC Plan Neofluoar (whole cells) or a 100×, 1.4 NA Plan Apochromat oil immersion objective (dendrites) on a Yokogawa spinning disk system (Cell Observer, Carl Zeiss) at 37° C. in Tyrodes buffer (in mM: 119 NaCl, 5 KCl, 2 CaCl2, 0.2 MgCl2, Glucose, 25 Hepes, 0.01 Glycine, pH 7.4). […]

Row | SMILES | BDNF-induced protein synthesis of BDNF targets (BDNF targets) | total protein synthesis (35S incorporation) (cultured neurons) | P-body numbers in neuronal soma and dendrites [1]
1 | Cc1c2oc3c(C)ccc(C(=O)N[C@@H]4C(=O)N[C@H](C(C)C)C(=O)N5CCC[C@H]5C(=O)N(C)CC(=O)N(C)[C@@H](C(C)C)C(=O)O[C@@H]4C)c3nc-2c(C(=O)N[C@@H]2C(=O)N[C@H](C(C)C)C(=O)N3CCC[C@H]3C(=O)N(C)CC(=O)N(C)[C@@H](C(C)C)C(=O)O[C@@H]2C)c(N)c1=O [Actinomycin-D] (I: T[dV]P[Sar][NMeV] / II: T[dV]P[Sar][NMeV]; ester I:1-I:C, II:1-II:C; linker I:N-II:N via Actinocin(9to1)) | does not alter BDNF-induced protein synthesis |  | 
2 | CCn1cc(C(=O)O)c(=O)c2cc(F)c(N3CCNCC3)nc21 [Enoxacin, enoxacin] |  | did not alter basal or BDNF-induced total protein synthesis | rapidly and robustly increased P-body numbers
3 | CCn1cc(C(=O)O)c(=O)c2cc3c(cc21)OCO3 [oxolinic acid] |  | does not alter total cellular protein synthesis | 

Reference: patent US20150148405A1, “Expression Construct for a Lin28-Resistant Let-7 Precursor MicroRNA” (THE JOHNS HOPKINS UNIVERSITY, priority 2012, published 2015)
